Each structure is given as a SMILES string. Bounds are passed on as bounds.

As a reminder, the IC50 is the concentration that gives 50% inhibition.

Tested on in the first data set: not listed separately
The data set can be described thus: Prodrug stability assay in bio-relevant media (Pancreatin solution in FaSSIF). The data set is classed as in vitro ADME. The settings on record: HPLC peak area of prodrug at 5 h / 0 h, 0.5 mg/mL Pancreatin in FaSSIF, 37° C. As to the method: Prodrug Stability Assay in Bio-Relevant Media
The following assay was employed to evaluate the stability of the prodrugs in simulated gastrointestinal tract conditions. Preparation of fasted state simulated intestinal fluid (FaSSIF) using Phares SIF Powder was carried out according to protocols from Phare Drug Delivery AG (Baselland, Switzerland). For sample preparation, 10 μL stock solutions (10 mM) of prodrug substance in DMSO was added to 990 μL of 0.5 mg/mL Pancreatin solution (Fisher CAS #8049-47-6) in FaSSIF. Two samples were prepared for each compound. If the sample was a clear solution, it was directly analyzed by HPLC. If the sample was not clear, the sample was diluted with 100% MeCN, maintained at 37° C. and observed 5 h later. If the sample was clear, HPLC analysis was directly performed. If the sample was still not clear, the sample was diluted with 100% ACN and assayed by HPLC. All the samples were vortexed for 3 min and observed before injection. For the diluted samples, the area is multiplied by a dilution factor when the data is analyzed. The analysis was carried out with an Agilent 1100 series HPLC with autosampler. The column was a Poroshell 120 EC-C18, 4.6×50 mm, 2.7 μm. The flow rate was 1.8 mL/min, and the injection volume was 5 or 10 μL. UV detection was in the range 210-400 nm. […]
Turning to `CCCOC(=O)C(C)(C)NP(=O)(CO[C@H](C)Cn1cnc2c(N)ncnc21)C(C(=O)OC(C)C)C(=O)OC(C)C` (single isomer, unassigned) [Example 2B], the “GI Tract stability” value is 87.2%.

In a further data set the test system is HIV-1. The data set is described as follows: Human PBMC based HIV-1 replication assay. It counts as cell-based. The following applies: Human immunodeficiency virus 1, PBMC, PHA-activated human PBMCs, 24 h preincubation with compound, infected with GFP-encoding HIV-1 construct. As to the method:
Assessing Antiviral Potency in a Human PBMC Based HIV-1 Replication Assay
The antiviral activity of the tenofovir prodrugs of the Examples herein was assessed in a human peripheral blood mononuclear cell (PBMC) based HIV-1 replication assay and performed as follows. Human PBMCs were treated with PHA ([…]) in RPMI 1640 medium containing 10% heat inactivated FBS for 2 to 3 days. Compound plates were prepared by dispensing compounds dissolved in DMSO into wells of 384 well poly-D-lysine-coated plates (0.2 μl/well) using an ECHO acoustic dispenser. Each compound was tested in a 10-point serial 3-fold dilution (typical final concentrations: 5.0 μM-0.1 nM). Controls included no inhibitor (DMSO only) and a combination of three antiviral agents (efavirenz, indinavir, an in-house integrase strand transfer inhibitor at final concentrations of 4 μM each). PHA-activated human PBMCs were added to the compound plates and incubated for 24 hours at 37° C./5% CO2/90% relative humidity. The PBMCs were then infected with an HIV-1 construct that encodes Green Fluorescence Protein (GFP) and the infected cells were incubated at 37° C./5% CO2/90% relative humidity for additional 24 hours.
Infected cells were quantified by counting the number of green cells in each well using an Acumen eX3 scanner. IC50 values were determined by non-linear 4-parameter curve fitting.
With `CCCOC(=O)C(C)(C)NP(=O)(CO[C@H](C)Cn1cnc2c(N)ncnc21)C(C#N)C(=O)OC(C)C` (stereo partly drawn) [Example 1, Propyl 2-((((R)-1-(6-amino-9H-purin-9-yl)propan-2-yloxy)methyl)(1-cyano-2-isopropoxy-2-oxoethyl)phosphorylamino)-2-methylpropanoate], the 50% inhibitory concentration (IC50) was found to be 1520 nM.
The same measure, in the same setting: the figure for `CCCOC(=O)C(C)(C)NP(=O)(CO[C@H](C)Cn1cnc2c(N)ncnc21)Cc1ccccc1` (stereo partly drawn) [Example 9, Propyl 2-((((R)-1-(6-amino-9H-purin-9-yl)propan-2-yloxy)methyl)(benzyl)phosphorylamino)-2-methylpropanoate] is 965 nM.
Still for that read-out and setting: the figure for `CCCOC(=O)C(C)(C)NP(=O)(CO[C@H](C)Cn1cnc2c(N)ncnc21)CC(=O)OC(C)(C)C` (stereo partly drawn) [Example 8, Propyl 2-((((R)-1-(6-amino-9H-purin-9-yl)propan-2-yloxy)methyl)(2-tert-butoxy-2-oxoethyl)phosphorylamino)-2-methylpropanoate] is over 2100 nM; for `CCCOC(=O)C(C)(C)NP(=O)(CO[C@H](C)Cn1cnc2c(N)ncnc21)C(C(=O)OC(C)C)c1ccccc1` (stereo partly drawn) [Example 5, Propyl 2-((((R)-1-(6-amino-9H-purin-9-yl)propan-2-yloxy)methyl)(2-isopropoxy-2-oxo-1-phenylethyl)phosphorylamino)-2-methylpropanoate] it is 58.8 nM; for `CCCOC(=O)C(C)(C)NP(=O)(CO[C@H](C)Cn1cnc2c(N)ncnc21)CC(=O)OC(C)C` (single isomer, unassigned) [Example 3A] it is 189 nM.
The same measure, in the same setting: next, `CCCOC(=O)C(C)(C)NP(=O)(CO[C@H](C)Cn1cnc2c(N)ncnc21)C(C#N)C#N` (single isomer, unassigned) [Example 6A]: over 2100 nM.
`CCCOC(=O)C(C)(C)NP(=O)(CC#N)CO[C@H](C)Cn1cnc2c(N)ncnc21` (stereo partly drawn) [Example 4, Propyl 2-((((R)-1-(6-amino-9H-purin-9-yl)propan-2-yloxy)methyl)(cyanomethyl)phosphorylamino)-2-methylpropanoate]: the half-maximal inhibitory concentration (IC50) is over 2100 nM.

Staying with this data set, now noted: PHA-activated human PBMCs, 24 h preincubation with compound, infected with GFP-encoding HIV-1 construct.
For `CCCOC(=O)C(C)(C)NP(=O)(CO[C@H](C)Cn1cnc2c(N)ncnc21)CC(=O)N(CC)CC` (single isomer, unassigned) [Example 7A], the half-maximal inhibitory concentration (IC50) was found to be 931 nM.
Still for that read-out and setting: next, `CCCOC(=O)C(C)(C)NP(=O)(CO[C@H](C)Cn1cnc2c(N)ncnc21)C(C#N)C#N` (single isomer, unassigned) [Example 6B]: over 2100 nM.
In the case of `CCCOC(=O)C(C)(C)NP(=O)(CO[C@H](C)Cn1cnc2c(N)ncnc21)CC(=O)OC(C)C` (single isomer, unassigned) [Example 3B], the 50% inhibitory concentration (IC50) came out at 226 nM.
On to `CCCOC(=O)C(C)(C)NP(=O)(CO[C@H](C)Cn1cnc2c(N)ncnc21)C(C(=O)OC(C)C)C(=O)OC(C)C` (single isomer, unassigned) [Example 2B], for which the IC50 stood at 6.8 nM.
On the same count and under the same terms, next, `CCCOC(=O)C(C)(C)NP(=O)(CO[C@H](C)Cn1cnc2c(N)ncnc21)CC(=O)N(CC)CC` (single isomer, unassigned) [Example 7B]: over 2100 nM; `CCCOC(=O)C(C)(C)NP(=O)(CO[C@H](C)Cn1cnc2c(N)ncnc21)C(C(=O)OC(C)C)C(=O)OC(C)C` (single isomer, unassigned) [Example 2A]: 73.9 nM.
